From patent US20140107015A1, “PHARAMACEUTICAL COMPOSITION FOR PREVENTING OR TREATING HUMAN IMMUNODEFICIENCY VIRUS” (priority 2012, published 2014)
Like-named read-outs stand apart in the source and are kept apart here.

What was measured:
[1] = biological target: HIV-1 reverse transcriptase (UniProt P04585); settings: for reverse transcriptase (RT) activity inhibition: 0.5 mg/ml, FIG. 23
[2] = test system: H9 cells infected with HIV-1IIIB; test: RT-PCR analysis of HIV-1 gene (Vif, Env, Gag) expression; format: cell-based; settings: for Vif, Env, and Gag genes expressions: 0.05, 0.1, 0.5, and 1 mg/ml, 4 days, FIG. 35; for Env gene expression: as treatment concentrations were increased
Description: RNA in the total cells cultured was isolated by using Trizol reagent (Invitrogen Co., CA, USA). 2 μg of isolated RNA was reverse-transcripted into cDNA using an oligo-(dT) primer (Promega, Madison, Wis., USA). […] A PCR product was isolated by subjecting an electrophoresis on 1.5% agarose gel at 100 V for 10 minutes. The gel was stained with 1 mg/ml of EtBr, and then photographed under UV illumination by using AlphaEas® gel image analysis software (Alpha Innotech., San Leandro, Calif., USA).

[3] = test system: C8166 cell lines infected with HIV-1RF; test: Syncytia formation in C8166 cells infected with HIV-1RF (microscopy, 48 hours); format: cell-based; settings: 0.5 mg/ml; for number of syncytia formation per well versus untreated control: FIG. 22; for syncytia formation observed with a microscope: FIGS. 18, 19, 21
Description: Since then, a degree of syncytia formation was observed by using a microscope.
When the virus infection stimulating cell fusion was analyzed, the syncytia formation was tested in order to investigate the virus infection.
Specifically, 1×10^5 C8166 cells in aliquots of 300 μl were seeded in triplicate to a 48-well plate containing 100 μl of serial dilutions of COS-amino acids (each of chitosan oligomer-amino acid conjugate) in complete RPMI-1640 medium with 5% FBS. After 2 hours of incubation, the cells were infected with 100 μl of stock supernatant of HIV-1RF diluted in complete medium at 200 CCID50 (μg/ml). The plates were incubated at 37° C. for 48 hours and the formation of syncytia was determined microscopically by using an inverted microscope (Leica Microsystems, Germany).
After 2 hours of incubation, the cells were infected with 100 μl of stock supernatant of HIV-1RF diluted in complete medium at 200 CCID50 (μg/ml). The plates were incubated at 37° C. for 48 hours and the formation of syncytia was determined microscopically by using an inverted microscope.

[4] = test system: 8E5 and MOLT-4 cell lines; test: Syncytia formation in co-culture of 8E5 and MOLT-4 cell lines; format: cell-based; settings: 0.5 mg/ml; for number of syncytia formed with time: FIG. 36; for syncytia formation inhibiting effect compared with control group: positive control AZT-Saq
Description: The number of syncytia formed with time was determined. Mock was an experimental group without the sample and AZT-Saq treated with AZT and saquinavir at the same time was used as a positive control.

[5] = test system: C8166 cell lines infected with HIV-1IIIB; settings: 0.5 mg/ml; for cell viability of HIV-1-infected C8166 cells: 48 hours after HIV-1IIIB infection, MTT, untreated cells = 100%; for cell protecting effect from HIV-1 lysis activity (cell deaths): FIG. 17 and 20
Description: And then, the cytotoxicities were measured through MTT assay as time passed.
Since C8166 cell lines were sensitive about lysis effect of HIV-1 replication, the present test evaluated a degree of inhibiting HIV-1 replication based on the sensitivity of C8166 cells at lysis activity due to HIV-1 infection in the present experiment.
Since then, the supernatants of HIV-1IIIB were diluted in complete medium to yield sufficient cytopathicity, and a 100 μl aliquot was added to the wells. Plates were incubated for 24 h, 48 h and 72 h at 37° C. and after each respective incubation, 100 μl of 500 μg/ml MTT solution was added to each well and the plate was incubated for another 4 hours at 37° C. The formazan salt was dissolved in acidified propanol containing 50% DMSO and 4% triton X-100. […] The optical density of formazan formed by untreated cells was taken as 100% of viability.

[6] = test system: H9 cells infected with HIV-1IIIB; test: Western blot analysis of p24 protein amount in cells; format: cell-based; settings: 0.01 to 1 mg/ml; cultured for 4 days; FIG. 34
Description: The total cultured cells were lysised in RIPA buffer solution (Sigma-Aldrich Corp., St. Louis, USA), centrifuged, and then the total protein amount of cell lysate was measured by using Lowry method (BioRad Laboratories, Hercules, Calif.). The aliquot supernatant including the same volume of protein (15 μg) was subjected to 10% or 12% SDS-PAGE gel, transferred on a nitrocellulose membrane (Amersham Pharmacia Biotech., England, UK), and blocked in Tris buffered saline containing 0.1% (v/v) Tween-20 (TBS-T) and 5% skim milk powder for at least 1 hour. The membrane was hybridized with mouse anti-p24 monoclonal antibody (Santa Cruz Biotechnology Inc., CA, USA). All the primary monoclonal antibodies were diluted with TBS-T at a ratio of 1:1000. The antibody was detected with Horseradish peroxidase (HRP)-conjugated anti-mouse IgG secondary antibody for 1 hour. The immune reactive protein was detected by using a chemical fluorescence ECL detecting kit (Amersham Pharmacia Biosciences, England, UK) according to the manufacturer's instruction. The western blot bands were visualized by LAS3000® chemiluminescence (Fujifilm Life Science, Tokyo, Japan).

[7] = test system: TZM-b1 cell infected with HIV-1IIIB; settings: for HIV-1 replication (gene reporter): 0.05, 0.1, 0.5, and 1 mg/ml, 48 hours, FIG. 38; for HIV-1 replication inhibition relative to the other samples: among COS-D, COS-T, COS-Y, COS-TD, COS-TY
Description: Briefly, one day before infection, 5×10^4 TZM-d1 cells were seeded in a 24-well flat, and added with 100 μl of HIV-1IIIB supernatant (100 CCID50 (1 μg/ml)) to infect 50% of the cells. […] After incubation, cells were washed with cold PBS and lysed in 300 μl of lysis buffer (Promega Corp., Madison, Wis.). 20 μl of cell lysate was mixed with 100 μl of luciferase substrate (Promega) and light emission was measured for 10 seconds in a luminometer (Tecan Austria GmbH, Austria). In case of β-galactosidase assay, 100 μl of X-gal substrate was mixed with cell lysate in order to stain the HIV-1 replicated cells and light absorption was measured at the optical density of 550 nm.

[8] = test system: uninfected C8166 cell lines co-cultured with H9 cells infected with HIV-1IIIB; test: Syncytia formation in co-culture of uninfected C8166 with H9 infected with HIV-1IIIB; format: cell-based; settings: for syncytia formation in co-culture over concentrations: 0.2, 0.4, 0.6, 0.8, and 1 mg/ml, 96 hours, FIGS. 32, 33; for syncytia formation inhibition in co-culture compared with positive control group: positive control Dextran sulfate
Description: After 96 hours, the formed syncytia was counted by using a microscope (100×). Dextran sulfate having the syncytia formation inhibiting effect was used as a positive control group.

[9] = test system: CEM-SS cells infected with HIV-1IIIB and HIV-1Saq; settings: 0.5 mg/ml; FIG. 37
Description: Uninfected CEM-SS cells were cultured into individual wells of a 48-well microtiter plate at a density of 3×10^4 cells/well in 400 μl of medium. Diluted HIV-1IIIB and HIV-1Saq stock supernatants (100 μl) were added to appropriate wells to yield a final M.O.I of 1.0 (CCID50). […] After a total of 4 days incubation, in order to measure the amount of p24 production, HIV-1 p24 antigen capture ELISA was performed using the commercial kit (Perkin-Elmer Life Sciences, Boston, Mass.) according to the manufacturer's instruction.

[10] = test system: C8166 cells infected with HIV-1RF; test: Syncytia formation inhibition in C8166 infected with HIV-1RF, various concentrations, 96 hours; format: cell-based; settings: for syncytia formation inhibition over concentrations: 0.2, 0.4, 0.6, 0.8, and 1.0 mg/ml, 96 hours, FIGS. 28, 29
Description: Specifically, 1×10^5C8166 cells in aliquots of 300 μl were seeded in triplicate to a 48-well plate containing 100 μl of serial dilutions of COS-N in complete RPMI-1640 medium with 5% FBS. After 2 hours of incubation, the cells were infected with 100 μl of stock supernatant of HIV-1RF diluted in complete medium at 200 CCID50 (μg/ml). The plates were incubated at 37° C. for 96 hours and the formation of syncytia was determined microscopically by using an inverted microscope (Leica Microsystems, Germany). Dextran sulfate having the syncytia formation inhibiting effect was used as a positive control group.
The syncytia formation effect was measured by using the same method as in Example <4-3>.

[11] = biological target: T1, HIV-1 reverse transcriptase (Human immunodeficiency virus type 1 group M subtype B, UniProt P05959); format: biochemical; settings: for reverse transcriptase inhibiting activity over concentrations: 0.05, 0.1, 0.25, 0.5, and 1 mg/ml, FIGS. 26, 27
T1 construct: endogenous in cells; host or cells: C8166 and CEM-SS cells infected with HIV-1RF (lysates)

[12] = test system: H9 cells infected with HIV-1IIIB; test: HIV-1 p24 antigen capture ELISA of culture supernatant; format: cell-based; settings: various concentrations; FIG. 31
Description: In order to measure p24 amount secreted from virus, H9 cells (3×10^6 cells/ml) was cultured at 37° C. for 1 hour in the presence of HIV-1IIIB. The unbound virus was removed from the cells by washing, and re-suspended in the culture medium to be 3×10^5 cells/ml. 1 mL of aliquot was injected to 24-well plate including the medium having the same volume containing COS-E sample. In order to measure the amount of virus secreted in the medium, HIV-1 p24 antigen capture ELISA was performed according to the manufacturer's instruction using a commercial kit (Perkin-Elmer Life Sciences, Boston, Mass.).

[13] = test system: HIV-1 protease of HIV-1saq; test: SensoLyte 520 HIV-1 protease FRET assay in saquinavir resistant HIV-1saq; format: biochemical; settings: saquinavir resistant strain; FIG. 25
Description: Meanwhile, the present inventors examined HIV-1 protease inhibiting effect using other cell lines of HIV-1. They use HIV-1saq that is a cell line having a resistance to saquinavir.
Saquinavir was used as a positive control group.

HIV-1 protease [14] = settings: 0.5 mg/ml; HIV-1RF/HIV-1IIIB; FIG. 24
Description: The amino acid sequence of FRET peptide is made by copying p17/p24 decomposition site by HIV-1 protease on a precursor Gag protein. FRET peptide is decomposed by HIV-1 protease and fluoresces.
Since then, 20 μl of substrate was added to HIV-1 protease that is pre-cultured at the same temperature for the same period and then slowly well-mixed for 30 to 60 second, completely. Since then, the fluorescence was measured at Ex/Em=340 nm/490 nm. The inhibiting rate was estimated as a relatively value to 100 of the fluorescence of the sample without an inhibitor.

HIV-1 protease [15] = biological target: T2, HIV-1 protease (Human immunodeficiency virus type 1 group M subtype B, UniProt P05959); test: Protease assay with protease diluents of C8166 and CEM-SS infected with HIV-1RF, various concentrations; format: biochemical; settings: 0.05, 0.1, 0.25, 0.5, and 1 mg/ml; FIG. 30
T2 construct: endogenous in cells; host or cells: C8166 and CEM-SS cells infected with HIV-1RF
Description: First, the HIV-1 protease inhibiting activity was measured by using the same method as in Example <3-3> except that the protease diluents of two cell lines, C8166 and CEM-SS infected with HIV-1RF.

[16] = sample 0.5 mg/ml, mean of HIV-1RF and HIV-1IIIB

Compound	number of syncytia formation per well versus untreated control [3]	syncytia formation observed with a microscope [3]	cell viability of HIV-1-infected C8166 cells [5]	HIV-1 replication (gene reporter) [7]	reverse transcriptase (RT) activity inhibition [1]	IC50 (RT inhibition) ([1]; mean of HIV-1RF and HIV-1IIIB)	RT Inhibition (%) [1, 16]	also measured
Cc1cn([C@H]2C[C@H](N=[N+]=[N-])[C@@H](CO)O2)c(=O)[nH]c1=O [AZT, zidovudine, reference compound]	–	–	–	–	–	–	–	RT Inhibition (%) ([1]; positive control 2 μM, mean of HIV-1RF and HIV-1IIIB): 82.6%; IC50 ([1]; read-out: IC50 (RT inhibition), mean of HIV-1RF and HIV-1IIIB): 303 µM
Chitosan oligomer-(Threonine-Aspartic acid) [COS-TD]	more significantly inhibited	rarely formed	94.6%	inhibited the HIV-1 replication depending on the concentration	effectively inhibited	207 µg/mL	85.1%	Vif, Env, and Gag genes expressions [2]: reduced depending on the treatment concentrations; Env gene expression [2]: significantly inhibited; number of syncytia formed with time [4]: not increased; syncytia formation inhibiting effect compared with control group [4]: high syncytia formation inhibiting effect; cell protecting effect from HIV-1 lysis activity (cell deaths) [5]: high cell protecting effect; p24 antigen production (western blot) [6]: inhibited depending on the treatment concentrations; HIV-1 replication inhibition relative to the other samples [7]: more effective; syncytia formation in co-culture over concentrations [8]: inhibited depending on the treated concentration; syncytia formation inhibition in co-culture compared with positive control group [8]: more effective; p24 production inhibiting activity with later addition [9]: reduced as time passes
Chitosan oligomer-(Threonine-Tyrosine) [COS-TY]	more significantly inhibited	rarely formed	–	inhibited the HIV-1 replication depending on the concentration	effectively inhibited	–	85.8%	Vif, Env, and Gag genes expressions [2]: reduced depending on the treatment concentrations; Env gene expression [2]: significantly inhibited; number of syncytia formed with time [4]: not increased; syncytia formation inhibiting effect compared with control group [4]: high syncytia formation inhibiting effect; cell protecting effect from HIV-1 lysis activity (cell deaths) [5]: high cell protecting effect; p24 antigen production (western blot) [6]: inhibited depending on the treatment concentrations; HIV-1 replication inhibition relative to the other samples [7]: more effective; syncytia formation in co-culture over concentrations [8]: inhibited depending on the treated concentration; syncytia formation inhibition in co-culture compared with positive control group [8]: more effective; p24 production inhibiting activity with later addition [9]: reduced as time passes
Chitosan oligomer-Asparagine [COS-N]	significantly inhibited	inhibited	71.2%	–	–	954 µg/mL	41.8%	syncytia formation inhibition over concentrations [10]: depending on the concentration; syncytia formation inhibition compared with positive control group ([10]; positive control Dextran sulfate): more effective
Chitosan oligomer-Aspartic acid [COS-D]	significantly inhibited	inhibited	78.8%	inhibited the HIV-1 replication depending on the concentration	effectively inhibited	–	83.4%	reverse transcriptase inhibiting effect at 0.05 mg/ml ([11]; 0.05 mg/ml): no the reverse transcriptase inhibiting effect; reverse transcriptase activity at low concentrations ([11]; 0.05 mg/ml and 0.1 mg/ml): not inhibited; reverse transcriptase inhibiting activity over concentrations [11]: depending on the concentration
Chitosan oligomer-Glutamic acid [COS-E]	significantly inhibited	inhibited	–	–	–	1036 µg/mL	32.7%	p24 secretion amount (production amount) in culture supernatant [12]: effectively inhibited; HIV-1 protease inhibition in HIV-1saq [13]: effectively inhibited; HIV-1 protease inhibition (HIV-1 protease [14]): effectively inhibited; HIV-1 protease inhibition over concentrations (HIV-1 protease [15]): depending on the concentration
Chitosan oligomer-Threonine [COS-T]	significantly inhibited	inhibited	72.3%	inhibited the HIV-1 replication depending on the concentration	–	761 µg/mL	55.3%	syncytia formation inhibiting activity at 0.5 mg/ml or more ([10]; 0.5 mg/ml or more, as compared with COS-N): very sharply increased; syncytia formation inhibition over concentrations [10]: depending on the concentration
Chitosan oligomer-Tyrosine [COS-Y]	significantly inhibited	inhibited	–	inhibited the HIV-1 replication depending on the concentration	effectively inhibited	–	83.5%	reverse transcriptase inhibiting activity over concentrations [11]: depending on the concentration
